Measured values from patent US8999954B2, “Inhibitors of polysialic acid de-N-acetylase and methods for using the same” (Childern's Hospital & Research Center at Oakland, priority 2007, dated 2015).

How the values were obtained:
[1] = tested on: Jurkat T-cell leukemia cells; assay: Cell viability assay (Guava ViaCount, flow cytometry); assay type: cell-based, human; conditions: 96 hrs incubation, increasing concentrations (FIG. 8)
[2] = tested on: CHP-134 neuroblastoma cells; assay: as above; assay type: cell-based, human; conditions: for induction of apoptosis / EC50: CHP-134 cells; for EC50: Homo sapiens, 24 hrs incubation, read-out: concentration for half-maximal decrease in viability
Procedure: (§1) Human melanoma SK-MEL 28, neuroblastoma CHP-134, and T-cell leukemia Jurkat cell lines were obtained from ATCC (Manassas, Va.). All cell lines were grown in RPMI 1640 media (UCSF Cell Culture Facility, San Francisco, Calif.), supplemented with 10% heat-inactivated fetal bovine serum (Gemini Bio-Products, West Sacramento, Calif.), non-essential amino acids, 100 units/ml penicillin/streptomycin, 110 μg/ml sodium pyruvate, and 2 mM glutamine (UCSF Cell Culture Facility). Jurkat cells were grown to a concentration of not more than 10^6 cells/ml and adherent SK-MEL 28 and CHP-134 cells to a concentration of not more than 5×10^4 cells/cm^2.
(§2) The effect of inhibitors of PSA de-N-acetylase on the viability of human tumor cell lines in culture was measured using a cell viability assay. Cells were incubated with N-acyl or methanesulfonyl hexosamine derivatives for 24 hours. Jurkat cells were incubated at a concentration of 2×10^5 cells/ml in round-bottom 96-well plates (Falcon), 200 μl/well. Adherent cells were incubated at a concentration of 1×10^5 cells/ml in flat-bottom 96-well plates (Nunc). Plates were then spun at 1,000×g for 5 minutes. SK-MEL 28 cells were release from the plate using a trypsin/EDTA solution (UCSF Cell Culture Facility). CHP-134 cells were released using CDR (Guava Technologies). All cells were resuspended in Guava ViaCount reagent and read on a Guava EasyCyte flow cytometer, using the Guava ViaCount assay (all from Guava Technologies).

SK-MEL 28 melanoma cells [3] = assay: as above; assay type: cell-based, human
Procedure: as §1, §2

[4] = tested on: Jurkat T-cell leukemia cells; assay: as above; assay type: cell-based, human; conditions: for apoptosis and cell death in Jurkat cells / cell viability of Jurkat cells: 24 hrs, concentration of 10 mM (FIG. 7); for EC50: Homo sapiens, read-out: concentration for half-maximal decrease in viability; for EC50 / viability of Jurkat cells: 24 hrs incubation; for viability of Jurkat cells: concentration in cell culture media varied (FIG. 3, 4, 9)
Procedure: as §1, §2

[5] = tested on: CHP-134 neuroblastoma cells; assay: Cell surface expression of N-propionyl PSA (SEAM 18 binding, flow cytometry); assay type: cell-based, human; conditions: CHP-134, 10 mM supplement in media, 24 hours (FIG. 2)
Procedure: (§3) CHP-134, SK-MEL 28 and Jurkat cells were cultured in media containing N-propionyl galactosamine, N-propionyl mannosamine, or N-acetyl mannosamine (10 mM) or no supplement for 24 hours. To measure mAb binding, the cells were released from the plate, pelleted by centrifugation, washed with PBS, and fixed with 1% formaldehyde in PBS. All procedures were performed on ice. Cells were blocked with PBS containing 3% goat serum, then were incubated overnight at 4° C. with one of the following primary antibodies (˜1 μg/ml), diluted in 3% goat serum: irrelevant isotype control mAbs IgG2a or IgG2b (Southern Biotech), SEAM 3 (Granoff et al. J. Immunol. 1998, 160:5028), or SEAM 18 (Granoff et al. J. Immunol. 1998, 160:5028). Cells were then washed and labeled with goat-anti-mouse FITC (1:1000, Jackson Immunoresearch, West Grove, Pa.). Fluorescence was measured on a Guava EasyCyte flow cytometer, using the Guava ExpressPlus assay (Guava Technologies) and the results are expressed as the percent of cells that are positive for mAb binding.

SK-MEL 28 melanoma cells [6] = assay: as above; assay type: cell-based, human; conditions: SK-MEL 28, 10 mM supplement in media, 24 hours (FIG. 2)
Procedure: as §3

[7] = tested on: Jurkat T-cell leukemia cells; assay: as above; assay type: cell-based, human; conditions: 10 mM supplement in media, 24 hours (FIG. 2)
Procedure: as §3

[8] = biological target: T1, membrane transporters for N-acetyl neuraminic acid (Homo sapiens, UniProt Q9NRA2); conditions: lysosomal membrane transporter; Essentials of Glycobiology 1999; read-out: Michaelis constant, Km, for forming a substrate/transporter complex; cited from earlier work
T1 sequence (Q9NRA2 1-495): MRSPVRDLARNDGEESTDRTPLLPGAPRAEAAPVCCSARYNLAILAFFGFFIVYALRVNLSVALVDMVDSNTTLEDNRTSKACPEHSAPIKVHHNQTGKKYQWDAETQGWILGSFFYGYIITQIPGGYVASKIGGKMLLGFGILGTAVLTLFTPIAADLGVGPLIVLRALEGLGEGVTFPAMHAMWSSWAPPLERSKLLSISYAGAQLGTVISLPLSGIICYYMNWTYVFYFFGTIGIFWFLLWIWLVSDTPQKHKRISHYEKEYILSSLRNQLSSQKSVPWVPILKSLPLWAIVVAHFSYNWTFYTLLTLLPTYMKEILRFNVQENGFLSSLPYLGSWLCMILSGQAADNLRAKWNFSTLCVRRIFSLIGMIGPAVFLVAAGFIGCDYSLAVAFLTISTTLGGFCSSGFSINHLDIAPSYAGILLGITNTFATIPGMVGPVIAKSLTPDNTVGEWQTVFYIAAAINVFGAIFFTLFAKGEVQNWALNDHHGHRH

[9] = 96 hrs incubation, increasing concentrations (FIG. 8)
[10] = 24 hours, concentration-dependent (FIG. 4)

**Q.** Which results are given for `CS(=O)(=O)N[C@H]1C(O)O[C@H](CO)[C@H](O)[C@@H]1O` (some centres unmarked) [GalNMeSul, N-Methyanesulfonyl Galactosamine]?
**A.** cell viability of Jurkat cells [1]: reduced; cell viability of CHP-134 cells [2, 9]: reduced; induction of apoptosis [2]: induce apoptosis; cell viability of SK-MEL 28 cells (SK-MEL 28 melanoma cells [3]; [9]): reduced; induction of apoptosis (SK-MEL 28 melanoma cells [3]; SK-MEL 28 cells): induce apoptosis; apoptosis and cell death in Jurkat cells [4]: inducing apoptosis and cell death; cell viability of Jurkat cells [4]: decrease cell viability; induction of apoptosis ([4]; Jurkat cells): induce apoptosis

**Q.** Which “percentage of cells positive for SEAM 18 binding” value (from here on “percentage of cells positive”) [5] does the source give for `CCC(=O)N[C@@H]1C(O)O[C@H](CO)[C@@H](O)[C@@H]1O` (some centres unmarked) [N-propionyl mannosamine] here?
**A.** increases

**Q.** What about the “percentage of cells positive” value (SK-MEL 28 melanoma cells [6]) of the same molecule?
**A.** increases

**Q.** And the “percentage of cells positive” value [7]?
**A.** increases

**Q.** Which results are given for `CS(=O)(=O)N[C@@H]1C(O)O[C@H](CO)[C@@H](O)[C@@H]1O` (some centres unmarked) [ManNMeSul, N-Methyanesulfonyl Mannosamine]?
**A.** cell viability of Jurkat cells [1]: reduced; cell viability of CHP-134 cells [2, 9]: reduced; induction of apoptosis [2]: induce apoptosis; cell viability of SK-MEL 28 cells (SK-MEL 28 melanoma cells [3]; [9]): reduced; induction of apoptosis (SK-MEL 28 melanoma cells [3]; SK-MEL 28 cells): induce apoptosis; apoptosis and cell death in Jurkat cells [4]: inducing apoptosis and cell death; cell viability of Jurkat cells [4]: decrease cell viability; induction of apoptosis ([4]; Jurkat cells): induce apoptosis

**Q.** With `O=C(CCl)N[C@@H]1C(O)O[C@H](CO)[C@@H](O)[C@@H]1O` (some centres unmarked) [ManNClAc, N-Chloroacetyl Mannosamine] as the molecule, how does the EC50 [2] read?
**A.** ~1000 µM

**Q.** What about the EC50 (SK-MEL 28 melanoma cells [3]; Homo sapiens, SK-MEL 28 cells, 24 hrs incubation, read-out: concentration for half-maximal decrease in viability) of the same molecule?
**A.** ~8000 µM

**Q.** And the EC50 ([4]; Jurkat cells)?
**A.** ~1000 µM

**Q.** What does the source list for `C=CC(=O)N[C@H]1C(O)O[C@H](CO)[C@H](O)[C@@H]1O` (some centres unmarked) [GalNAcryl, N-Acryl Galactosamine]?
**A.** EC50 [2]: 3000 µM; EC50 ([4]; Jurkat cells): 3000 µM

**Q.** With `C=CC(=O)N[C@@H]1C(O)O[C@H](CO)[C@@H](O)[C@@H]1O` (some centres unmarked) [N-acryl mannosamine, N-Acryl Mannosamine] as the molecule, how does the “cell viability of CHP-134 cells” value [2, 10] read?
**A.** reducing the cell viability

**Q.** What about the “cell viability of SK-MEL 28 cells” value (SK-MEL 28 melanoma cells [3]; [10]) of the same molecule?
**A.** reducing the cell viability

**Q.** What about the “apoptosis and cell death of Jurkat cells” value ([4]; 24 hours, four concentrations (FIG. 3)) of the same molecule?
**A.** inducing apoptosis and cell death

**Q.** What about the “viability of Jurkat cells” value [4] of the same molecule?
**A.** reduces the viability

**Q.** And the “sensitivity of Jurkat cells to killing relative to the other cell lines” value ([4]; Jurkat vs CHP-134 and SK-MEL 28 (FIG. 4))?
**A.** approximately 10 fold

**Q.** With `CC(=O)N[C@H]1[C@H]([C@H](O)[C@H](O)CO)OC(O)(C(=O)O)C[C@@H]1O` (some centres unmarked) [N-acetyl neuraminic acid] as the molecule, how does the Km [8] read?
**A.** ~500 µM

**Q.** With “Poly alpha (2→8) N-Acryl Neuraminic Acid [N-acryl PSA]” as the molecule, how does the “viability of Jurkat cells” value [4] read?
**A.** reduced viability

**Q.** And the “concentration required to induce cell death compared with N-acryl mannosamine” value ([4]; Jurkat cells, 24 hrs (FIG. 9))?
**A.** higher

**Q.** Which “percentage of cells positive” value [5] does the source give for `CCC(=O)N[C@H]1C(O)O[C@H](CO)[C@H](O)[C@@H]1O` (some centres unmarked) [N-propionyl galactosamine] here?
**A.** increases

**Q.** And the “percentage of cells positive” value (SK-MEL 28 melanoma cells [6])?
**A.** increases

**Q.** What about the “percentage of cells positive” value [7] of the same molecule?
**A.** increases
